# In patent publication US9244081B2, “Cell-based fluorescent assays for identifying alpha and delta ENaC modulators” (Senomyx, Inc., priority 2006, dated 2016):
# Legend:
# [1] = biological target: T1, deltaENaC channel (gamma, beta, and delta subunit) (Homo sapiens, UniProt P51168+P51170+P51172); test: FLIPR membrane potential dye assay, dye loaded in absence of sodium (Protocol 1), deltaENaC-transfected HEK293 cells; format: cell-based; settings: 50 micromolar amiloride; 70 mM NaCl stimulus; dye loaded without sodium (NMDG)
# T1 construct: expressed in transfected cells; host or cells: HEK293, transient transfection
# T1 sequence (P51172 1-638 isoform P51172-1): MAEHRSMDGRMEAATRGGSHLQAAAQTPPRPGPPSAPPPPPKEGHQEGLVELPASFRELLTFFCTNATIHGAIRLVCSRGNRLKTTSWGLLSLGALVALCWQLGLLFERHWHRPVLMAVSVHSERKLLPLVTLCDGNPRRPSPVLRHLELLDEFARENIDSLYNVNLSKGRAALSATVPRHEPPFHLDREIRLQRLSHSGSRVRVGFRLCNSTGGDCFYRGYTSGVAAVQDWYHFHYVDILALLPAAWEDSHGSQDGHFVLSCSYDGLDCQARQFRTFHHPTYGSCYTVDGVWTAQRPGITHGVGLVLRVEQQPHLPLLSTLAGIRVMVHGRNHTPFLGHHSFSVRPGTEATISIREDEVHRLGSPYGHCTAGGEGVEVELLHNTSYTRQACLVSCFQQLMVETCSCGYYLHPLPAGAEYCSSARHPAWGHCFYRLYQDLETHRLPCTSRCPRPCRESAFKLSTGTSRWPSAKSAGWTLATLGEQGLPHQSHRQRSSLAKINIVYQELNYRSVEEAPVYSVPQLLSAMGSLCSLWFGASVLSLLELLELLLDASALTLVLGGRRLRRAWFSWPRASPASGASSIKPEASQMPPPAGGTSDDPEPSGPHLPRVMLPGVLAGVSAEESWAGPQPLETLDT
# T1 sequence (P51168 1-640): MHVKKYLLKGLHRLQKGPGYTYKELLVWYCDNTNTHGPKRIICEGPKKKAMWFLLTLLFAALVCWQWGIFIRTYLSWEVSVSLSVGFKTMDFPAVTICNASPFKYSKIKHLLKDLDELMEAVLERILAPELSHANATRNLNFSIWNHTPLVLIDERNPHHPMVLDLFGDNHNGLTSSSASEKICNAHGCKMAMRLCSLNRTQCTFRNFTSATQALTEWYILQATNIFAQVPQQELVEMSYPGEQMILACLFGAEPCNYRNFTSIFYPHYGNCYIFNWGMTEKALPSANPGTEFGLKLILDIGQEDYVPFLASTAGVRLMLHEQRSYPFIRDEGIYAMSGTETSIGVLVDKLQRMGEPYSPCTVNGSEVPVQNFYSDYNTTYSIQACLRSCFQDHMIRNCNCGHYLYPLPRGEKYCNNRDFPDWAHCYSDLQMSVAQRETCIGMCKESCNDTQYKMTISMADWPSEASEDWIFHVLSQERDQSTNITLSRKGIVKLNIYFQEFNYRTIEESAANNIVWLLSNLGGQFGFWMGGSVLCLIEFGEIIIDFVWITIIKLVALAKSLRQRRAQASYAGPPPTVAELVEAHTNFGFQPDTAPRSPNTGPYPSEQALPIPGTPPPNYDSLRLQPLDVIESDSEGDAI
# T1 sequence (P51170 1-649): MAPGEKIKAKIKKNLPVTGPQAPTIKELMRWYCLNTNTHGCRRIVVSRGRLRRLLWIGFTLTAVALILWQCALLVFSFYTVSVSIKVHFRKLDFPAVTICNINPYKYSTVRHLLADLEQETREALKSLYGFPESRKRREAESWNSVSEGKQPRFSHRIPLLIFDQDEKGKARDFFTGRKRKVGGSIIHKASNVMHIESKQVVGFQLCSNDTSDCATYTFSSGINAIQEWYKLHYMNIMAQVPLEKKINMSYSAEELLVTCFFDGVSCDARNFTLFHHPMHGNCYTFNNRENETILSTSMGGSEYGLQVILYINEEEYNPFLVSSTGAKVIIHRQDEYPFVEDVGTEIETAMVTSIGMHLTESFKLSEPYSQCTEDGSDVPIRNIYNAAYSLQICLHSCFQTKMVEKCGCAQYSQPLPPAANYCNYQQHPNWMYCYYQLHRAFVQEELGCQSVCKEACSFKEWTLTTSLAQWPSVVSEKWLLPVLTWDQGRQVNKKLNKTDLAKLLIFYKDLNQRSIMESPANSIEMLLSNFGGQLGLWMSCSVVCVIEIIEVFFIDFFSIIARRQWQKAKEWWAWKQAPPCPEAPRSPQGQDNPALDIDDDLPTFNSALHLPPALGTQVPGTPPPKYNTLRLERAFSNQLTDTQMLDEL
# Text: (§1) In this experiment HEK293 cells which were transfected with sequences encoding the human alpha, beta and gamma subunits were used to screen for the effect of amiloride on NaCl induced changes in membrane potential. […] These HEK293 cells were transiently transfected with plasmids containing the alpha, beta and gamma ENaC encoding nucleic acid sequences and then loaded with a membrane potential dye (FMP; Molecular Devices) in the absence of sodium (NaCl was replaced with NMDG) at room temperature for one hour. Cells were then stimulated with 70 mM NaCl with (red trace) or without (white trace) 6.25 micromolar amiloride. Changes in membrane potential (fluorescent signal) in HEK293 cells were monitored on a FLIPR system (Molecular Devices). […] HEK293 cells were transiently transfected with the gamma, beta, and delta subunit containing plasmids and were loaded with a membrane potential dye (FMP; Molecular Devices) in the absence of sodium (NaCl was replaced with NMDG) at room temperature for one hour. Cells were then stimulated with 70 mM NaCl with (red trace) or without (white trace) 50 micromolar amiloride. Changes in membrane potential (fluorescent signal) were monitored on a FLIPR system (Molecular Devices). […] Therein cells were prepared and treated as in Panels A and B. Increasing concentrations of amiloride were used to assess potency at inhibiting the different forms of ENaC.
# [2] = biological target: T2, alphaENaC channel (human alpha, beta and gamma subunits) (Homo sapiens, UniProt P37088+P51168+P51170); test: FLIPR membrane potential dye assay, dye loaded in absence of sodium (Protocol 1), alphaENaC-transfected HEK293 cells; format: cell-based
# T2 construct: expressed in transfected cells; host or cells: HEK293, transient transfection
# T2 sequence (P37088 1-669): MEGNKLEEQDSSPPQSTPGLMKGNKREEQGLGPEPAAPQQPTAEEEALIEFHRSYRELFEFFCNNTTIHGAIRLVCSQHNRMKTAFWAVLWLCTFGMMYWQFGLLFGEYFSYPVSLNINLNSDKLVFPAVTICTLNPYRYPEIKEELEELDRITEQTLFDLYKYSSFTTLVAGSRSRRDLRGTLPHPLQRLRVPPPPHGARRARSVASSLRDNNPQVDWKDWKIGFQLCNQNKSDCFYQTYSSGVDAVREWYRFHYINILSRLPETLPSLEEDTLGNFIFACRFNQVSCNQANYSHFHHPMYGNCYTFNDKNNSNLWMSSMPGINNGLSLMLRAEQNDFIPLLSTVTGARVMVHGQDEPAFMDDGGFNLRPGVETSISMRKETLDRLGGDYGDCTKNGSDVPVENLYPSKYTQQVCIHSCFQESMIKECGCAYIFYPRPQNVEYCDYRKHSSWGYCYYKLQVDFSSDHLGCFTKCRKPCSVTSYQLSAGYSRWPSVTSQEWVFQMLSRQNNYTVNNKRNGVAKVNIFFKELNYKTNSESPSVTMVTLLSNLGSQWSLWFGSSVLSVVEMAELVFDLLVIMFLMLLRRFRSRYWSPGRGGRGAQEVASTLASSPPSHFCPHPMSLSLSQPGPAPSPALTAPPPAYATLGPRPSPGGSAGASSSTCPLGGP
# T2 sequence (P51168 1-640): T1 sequence (P51168 1-640)
# T2 sequence (P51170 1-649): T1 sequence (P51170 1-649)
# Text: as §1
# This example relates to the fluorescent experiments contained in FIG. 2, Panels A, B and C. In the experiment in Panel A it can be seen that the enhancer S559 increases the NaCl-induced change in membrane potential in HEK293 cells expressing the alphaENaC channel. […] Changes in membrane potential (fluorescent signal) were monitored on a FLIPR system (Molecular Devices). […] Changes in membrane potential (Fluorescent signal) were monitored on a FLIPR system (Molecular Devices).
# [3] = test system: perceived human salt intensity; settings: concentrations that specifically modulate ENaC function; cited from earlier work
# HEK293 cells = test: FLIPR membrane potential control in mock-transfected or un-transfected HEK293 cells (Protocol 2); format: cell-based; settings: HEK293 transfected with mock plasmid (pUC19)
# Experimental: In the experiment HEK293 cells again transfected transiently with plasmids containing the alpha, beta, and gamma ENaC subunit nucleic acid sequences and were treated as described in Example 2., Panel B (Protocol 2). Changes in membrane potential (fluorescent signal) were monitored on a FLIPR system (Molecular Devices). […] HEK293 cells were transfected with a mock plasmid (pUC19) and treated as described above. Changes in membrane potential (fluorescent signal) were monitored on a FLIPR system (Molecular Devices).
# HEK293 cells transiently transfected with plasmids containing nucleic acid sequences encoding the human delta, beta and gamma ENaC subunits and were treated as described in FIG. 2; Panel B (Protocol 2).
# [4] = biological target: T3, alphaENaC channel (alpha, beta and gamma ENaC subunits) (Homo sapiens, UniProt P37088+P51168+P51170); test: FLIPR membrane potential dye assay, dye loaded in 140 mM NaCl (Protocol 2), alphaENaC-transfected HEK293 cells; format: cell-based; settings: 3 micromolar amiloride
# T3 construct: expressed in transfected cells; host or cells: HEK293, transient transfection
# T3 sequence (P37088 1-669): T2 sequence (P37088 1-669)
# T3 sequence (P51168 1-640): T1 sequence (P51168 1-640)
# T3 sequence (P51170 1-649): T1 sequence (P51170 1-649)
# Text: This example relates to the fluorescent experiments contained in FIG. 2, Panels A, B and C. In the experiment in Panel A it can be seen that the enhancer S559 increases the NaCl-induced change in membrane potential in HEK293 cells expressing the alphaENaC channel. HEK293 cells were transiently transfected with plasmids containing sequences encoding the human alpha, beta, and gamma ENaC subunits and were loaded with a membrane potential dye (FMP; Molecular Devices) in the absence of sodium (NaCl was replaced with NMDG) at room temperature for one hour. Cells were then stimulated with 17.5 mM NaCl with (red trace) and without (white trace) 15 micromolar S559. Changes in membrane potential (fluorescent signal) were monitored on a FLIPR system (Molecular Devices). […] Changes in membrane potential (Fluorescent signal) were monitored on a FLIPR system (Molecular Devices).
# In the experiment HEK293 cells again transfected transiently with plasmids containing the alpha, beta, and gamma ENaC subunit nucleic acid sequences and were treated as described in Example 2., Panel B (Protocol 2). Changes in membrane potential (fluorescent signal) were monitored on a FLIPR system (Molecular Devices). […] Changes in membrane potential (fluorescent signal) were monitored on a FLIPR system (Molecular Devices). […]
# [5] = test system: perceived human salt intensity; test: Human salty taste intensity test; format: in vivo; settings: 300-fold (amiloride) and 3000-fold (benzamil) above IC50 for alpha beta gamma ENaC in oocytes
# Text: Unlike other mammals, amiloride only slightly reduces the intensity of sodium chloride taste, i.e., by about 15-20% when used at concentrations that specifically modulate ENaC function. […] Thus, additional non-ENaC genes are likely involved in human taste and other biological functions.
Structure (SMILES),inhibition of NaCl induced change in membrane potential [1],"inhibition of NaCl induced changes in membrane potential ([2]; 6.25 micromolar amiloride, 70 mM NaCl stimulus, dye loaded without sodium (NMDG))","apparent affinity on α-ENaC transfected cells relative to δ-ENaC transfected cells ([2]; dye loaded in absence of sodium, sodium add back)","potency at inhibiting alphaENaC versus deltaENaC ([2]; increasing concentrations of amiloride, cells treated as in Panels A and B)",reduction of intensity of sodium chloride taste [3],effect on membrane potential in cells that do not express alphaENaC (HEK293 cells),block of S559 enhancer effects [4],effect on perceived human salt intensity [5]
N=C(N)NC(=O)c1nc(Cl)c(N)nc1N [amiloride],totally inhibited,totally inhibited,at least 10 fold,more potent at inhibiting alphaENaC than deltaENaC,15-20%,do not exhibit any effect,almost totally abolishes,did not elicit a significant effect
NC(=Nc1ccccc1)NC(=O)c1nc(Cl)c(N)nc1N [phenamil],,,,,,,,did not elicit a significant effect
